Experimental data as given in PubChem BioAssay (NCI).
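Grown in 96-well plates, cells were treated for 48 hours with each compound at five concentrations. Insufficient inhibition: endpoint recorded as highest concentration tested. At the GI50, growth is halved. TGI: total growth inhibition.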

Assays:
Test in all cases: DTP human tumour cell line panel, 48 h
MDA-MB-435 = system: MDA-MB-435
HT29 colon = system: HT29 colon
OVCAR-4 ovarian = system: OVCAR-4 ovarian
NCI-H522 lung = system: NCI-H522 lung
M14 melanoma = system: M14 melanoma
MOLT-4 leukemia = system: MOLT-4 leukemia
SW-620 colon = system: SW-620 colon
NCI-H460 lung = system: NCI-H460 lung
NCI/ADR-RES ovarian = system: NCI/ADR-RES ovarian
OVCAR-8 ovarian = system: OVCAR-8 ovarian
SK-OV-3 ovarian = system: SK-OV-3 ovarian
DU-145 prostate = system: DU-145 prostate
UO-31 renal = system: UO-31 renal
HL-60(TB) leukemia = system: HL-60(TB) leukemia
MDA-MB-231 breast = system: MDA-MB-231 breast
EKVX NSCLC = system: EKVX NSCLC
SF-268 CNS = system: SF-268 CNS
SR leukemia = system: SR leukemia
OVCAR-3 ovarian = system: OVCAR-3 ovarian
SK-MEL-5 melanoma = system: SK-MEL-5 melanoma
A549 NSCLC = system: A549 NSCLC
T-47D breast = system: T-47D breast
SF-295 CNS = system: SF-295 CNS
HOP-62 NSCLC = system: HOP-62 NSCLC
IGROV1 ovarian = system: IGROV1 ovarian
UACC-62 melanoma = system: UACC-62 melanoma
SN12C renal = system: SN12C renal
PC-3 prostate = system: PC-3 prostate
NCI-H23 lung = system: NCI-H23 lung
SK-MEL-2 melanoma = system: SK-MEL-2 melanoma
HCT-116 colon = system: HCT-116 colon
RXF 393 renal = system: RXF 393 renal
MCF7 breast = system: MCF7 breast
A498 renal = system: A498 renal
UACC-257 melanoma = system: UACC-257 melanoma
CCRF-CEM leukemia = system: CCRF-CEM leukemia
KM12 colon = system: KM12 colon
RPMI-8226 leukemia = system: RPMI-8226 leukemia
SK-MEL-28 melanoma = system: SK-MEL-28 melanoma
HCC-2998 colon = system: HCC-2998 colon
HOP-92 NSCLC = system: HOP-92 NSCLC
COLO 205 colon = system: COLO 205 colon
SNB-75 CNS = system: SNB-75 CNS
MALME-3M melanoma = system: MALME-3M melanoma
K-562 leukemia = system: K-562 leukemia
ACHN renal = system: ACHN renal
HS 578T breast = system: HS 578T breast
OVCAR-5 ovarian = system: OVCAR-5 ovarian
786-0 renal = system: 786-0 renal
BT-549 breast = system: BT-549 breast
SNB-19 CNS = system: SNB-19 CNS
NCI-H226 lung = system: NCI-H226 lung
CAKI-1 renal = system: CAKI-1 renal
SF-539 CNS = system: SF-539 CNS
LOX IMVI melanoma = system: LOX IMVI melanoma

## O=C1c2ccc3c4c(ccc(c24)C(=O)N1CCCNCc1ccccc1F)C(=O)N(CCCNCc1ccccc1F)C3=O
MDA-MB-435
  GI50: 175 nM
  TGI: 359 nM
HT29 colon
  GI50: 49.4 nM
  TGI: 203 nM
OVCAR-4 ovarian
  GI50: 109 nM
  TGI: 237 nM
NCI-H522 lung
  GI50: 154 nM
  TGI: 298 nM
M14 melanoma
  GI50: 152 nM
  TGI: 293 nM
MOLT-4 leukemia
  GI50: 144 nM
  TGI: 544 nM
SW-620 colon
  GI50: 75.4 nM
  TGI: 274 nM
NCI-H460 lung
  GI50: 154 nM
  TGI: 504 nM
NCI/ADR-RES ovarian
  GI50: 206 nM
  TGI: 726 nM
OVCAR-8 ovarian
  GI50: 95.4 nM
  TGI: 422 nM
SK-OV-3 ovarian
  GI50: 249 nM
  TGI: 635 nM
DU-145 prostate
  GI50: 154 nM
  TGI: 287 nM
UO-31 renal
  GI50: 194 nM
  TGI: 468 nM
HL-60(TB) leukemia
  GI50: 239 nM
  TGI: 542 nM
MDA-MB-231 breast
  GI50: 250 nM
  TGI: 717 nM
EKVX NSCLC
  GI50: 171 nM
  TGI: 331 nM
SF-268 CNS
  GI50: 208 nM
  TGI: 534 nM
SR leukemia
  GI50: 123 nM
  TGI: 614 nM
OVCAR-3 ovarian
  GI50: 189 nM
  TGI: 557 nM
SK-MEL-5 melanoma
  GI50: 163 nM
  TGI: 299 nM
A549 NSCLC
  GI50: 107 nM
  TGI: 294 nM
T-47D breast
  GI50: 194 nM
  TGI: 417 nM
SF-295 CNS
  GI50: 176 nM
  TGI: 409 nM
HOP-62 NSCLC
  GI50: 151 nM
  TGI: 331 nM
IGROV1 ovarian
  GI50: 180 nM
  TGI: 543 nM
UACC-62 melanoma
  GI50: 179 nM
  TGI: 335 nM
SN12C renal
  GI50: 144 nM
  TGI: 296 nM
PC-3 prostate
  GI50: 228 nM
  TGI: 658 nM
NCI-H23 lung
  GI50: 171 nM
  TGI: 369 nM
SK-MEL-2 melanoma
  GI50: 192 nM
  TGI: 366 nM
HCT-116 colon
  GI50: 67.6 nM
  TGI: 303 nM
RXF 393 renal
  GI50: 138 nM
  TGI: 274 nM
MCF7 breast
  GI50: 109 nM
  TGI: 359 nM
A498 renal
  GI50: 310 nM
  TGI: 1720 nM
UACC-257 melanoma
  GI50: 172 nM
  TGI: 340 nM
CCRF-CEM leukemia
  GI50: 166 nM
KM12 colon
  GI50: 127 nM
  TGI: 285 nM
RPMI-8226 leukemia
  GI50: 272 nM
  TGI: 818 nM
SK-MEL-28 melanoma
  GI50: 210 nM
  TGI: 465 nM
HCC-2998 colon
  GI50: 158 nM
  TGI: 312 nM
HOP-92 NSCLC
  GI50: 238 nM
  TGI: 566 nM
COLO 205 colon
  GI50: 86.3 nM
  TGI: 208 nM
SNB-75 CNS
  GI50: 164 nM
  TGI: 320 nM
MALME-3M melanoma
  GI50: 151 nM
  TGI: 299 nM
K-562 leukemia
  GI50: 209 nM
  TGI: 5.52 µM
ACHN renal
  GI50: 127 nM
  TGI: 563 nM
HS 578T breast
  GI50: 523 nM
  TGI: 2860 nM
OVCAR-5 ovarian
  GI50: 200 nM
  TGI: 449 nM
786-0 renal
  GI50: 217 nM
  TGI: 587 nM
BT-549 breast
  GI50: 317 nM
  TGI: 767 nM
SNB-19 CNS
  GI50: 136 nM
  TGI: 275 nM
NCI-H226 lung
  GI50: 210 nM
  TGI: 482 nM
CAKI-1 renal
  GI50: 187 nM
  TGI: 495 nM
SF-539 CNS
  GI50: 208 nM
  TGI: 464 nM
LOX IMVI melanoma
  GI50: 121 nM
  TGI: 317 nM
